Results reported in patent US20250325485A1, “STABLE COMPOSITIONS OF FOXY-5 HEXAPEPTIDE WITH HIGH SOLUBILITY” (WNTRESEARCH AB, priority 2021, published 2025).
Structures can show the parent of a compound that is named as a salt. Peptide text beside a SMILES is read from it. * marks the point of attachment. For = O=C*

Experiment: FIG. 10
Procedure: Table printed on a drawing sheet, FIG. 10
The patent's description of the figure: FIG. 10
First reader's note: Storage stability of Foxy-5 free acid and its salts shown as HPLC purity and impurity levels (Ala, aspartimide, dimer) initially and after 2 and 4 weeks at 40°C; decimal commas as printed.

SMILES	After 2 weeks @ 40°C | Ala (area%)	After 2 weeks @ 40°C | Aspartimide (area%)	After 2 weeks @ 40°C | Dimer (area%)	After 2 weeks @ 40°C | HPLC purity (area%)	After 4 weeks @ 40°C | Ala (area%)	After 4 weeks @ 40°C | Aspartimide (area%)	After 4 weeks @ 40°C | Dimer (area%)	After 4 weeks @ 40°C | HPLC purity (area%)
CSCC[C@H](NC=O)C(=O)N[C@@H](CC(=O)O)C(=O)NCC(=O)N[C@@H](CS)C(=O)N[C@@H](CCC(=O)O)C(=O)N[C@@H](CC(C)C)C(=O)O [DEA Di salt] (For-MDGCEL-OH)	0 area%	4,98 area%	1,18 area%	92,88 area%	0,25 area%	7,50 area%	3,10 area%	87,11 area%
CSCC[C@H](NC=O)C(=O)N[C@@H](CC(=O)O)C(=O)NCC(=O)N[C@@H](CS)C(=O)N[C@@H](CCC(=O)O)C(=O)N[C@@H](CC(C)C)C(=O)O [DEA Tri salt] (For-MDGCEL-OH)	1,91 area%	5,78 area%	8,10 area%	82,51 area%	1,82 area%	7,20 area%	5,80 area%	80,92 area%
CSCC[C@H](NC=O)C(=O)N[C@@H](CC(=O)O)C(=O)NCC(=O)N[C@@H](CS)C(=O)N[C@@H](CCC(=O)O)C(=O)N[C@@H](CC(C)C)C(=O)O [Foxy-5 free acid] (For-MDGCEL-OH)	0 area%	0,75 area%	0,00 area%	98,40 area%	0,00 area%	0,80 area%	0,00 area%	98,21 area%
CSCC[C@H](NC=O)C(=O)N[C@@H](CC(=O)O)C(=O)NCC(=O)N[C@@H](CS)C(=O)N[C@@H](CCC(=O)O)C(=O)N[C@@H](CC(C)C)C(=O)O [HIS Di salt] (For-MDGCEL-OH)	0 area%	1,97 area%	0,00 area%	97,40 area%	0,00 area%	2,40 area%	0,00 area%	96,52 area%
CSCC[C@H](NC=O)C(=O)N[C@@H](CC(=O)O)C(=O)NCC(=O)N[C@@H](CS)C(=O)N[C@@H](CCC(=O)O)C(=O)N[C@@H](CC(C)C)C(=O)O [HIS Tri salt] (For-MDGCEL-OH)	0 area%	1,97 area%	1,10 area%	96,41 area%	0,00 area%	2,43 area%	0,90 area%	95,32 area%
CSCC[C@H](NC=O)C(=O)N[C@@H](CC(=O)O)C(=O)NCC(=O)N[C@@H](CS)C(=O)N[C@@H](CCC(=O)O)C(=O)N[C@@H](CC(C)C)C(=O)O [LYS Di salt] (For-MDGCEL-OH)	0 area%	2,50 area%	0,00 area%	97,06 area%	0,47 area%	2,80 area%	0,55 area%	95,17 area%
CSCC[C@H](NC=O)C(=O)N[C@@H](CC(=O)O)C(=O)NCC(=O)N[C@@H](CS)C(=O)N[C@@H](CCC(=O)O)C(=O)N[C@@H](CC(C)C)C(=O)O [LYS Tri salt] (For-MDGCEL-OH)	4,25 area%	1,10 area%	1,80 area%	92,29 area%	8,45 area%	1,26 area%	3,40 area%	84,97 area%
CSCC[C@H](NC=O)C(=O)N[C@@H](CC(=O)O)C(=O)NCC(=O)N[C@@H](CS)C(=O)N[C@@H](CCC(=O)O)C(=O)N[C@@H](CC(C)C)C(=O)O [NH3 Di salt] (For-MDGCEL-OH)	0 area%	4,45 area%	0,38 area%	92,27 area%	0,00 area%	5,52 area%	0,27 area%	89,75 area%
CSCC[C@H](NC=O)C(=O)N[C@@H](CC(=O)O)C(=O)NCC(=O)N[C@@H](CS)C(=O)N[C@@H](CCC(=O)O)C(=O)N[C@@H](CC(C)C)C(=O)O [NH3 Tri salt] (For-MDGCEL-OH)	0 area%	4,10 area%	2,95 area%	88,64 area%	0,00 area%	3,88 area%	3,37 area%	86,45 area%
CSCC[C@H](NC=O)C(=O)N[C@@H](CC(=O)O)C(=O)NCC(=O)N[C@@H](CS)C(=O)N[C@@H](CCC(=O)O)C(=O)N[C@@H](CC(C)C)C(=O)O [NMG Di salt] (For-MDGCEL-OH)	0 area%	3,85 area%	0,93 area%	93,22 area%	0,00 area%	6,17 area%	0,81 area%	91,23 area%
CSCC[C@H](NC=O)C(=O)N[C@@H](CC(=O)O)C(=O)NCC(=O)N[C@@H](CS)C(=O)N[C@@H](CCC(=O)O)C(=O)N[C@@H](CC(C)C)C(=O)O [NMG Tri salt] (For-MDGCEL-OH)	0 area%	1,76 area%	1,13 area%	95,97 area%	0,00 area%	3,06 area%	0,82 area%	95,14 area%
CSCC[C@H](NC=O)C(=O)N[C@@H](CC(=O)O)C(=O)NCC(=O)N[C@@H](CS)C(=O)N[C@@H](CCC(=O)O)C(=O)N[C@@H](CC(C)C)C(=O)O [Na Tri salt] (For-MDGCEL-OH)	13,4 area%	0,53 area%	13,20 area%	68,15 area%	14,70 area%	0,30 area%	16,80 area%	60,34 area%
CSCC[C@H](NC=O)C(=O)N[C@@H](CC(=O)O)C(=O)NCC(=O)N[C@@H](CS)C(=O)N[C@@H](CCC(=O)O)C(=O)N[C@@H](CC(C)C)C(=O)O [TRO Di salt] (For-MDGCEL-OH)	0 area%	2,75 area%	0,00 area%	96,51 area%	0,00 area%	4,20 area%	0,60 area%	93,87 area%
CSCC[C@H](NC=O)C(=O)N[C@@H](CC(=O)O)C(=O)NCC(=O)N[C@@H](CS)C(=O)N[C@@H](CCC(=O)O)C(=O)N[C@@H](CC(C)C)C(=O)O [TRO Tri salt] (For-MDGCEL-OH)	0 area%	8,24 area%	0,63 area%	87,27 area%	0,00 area%	11,40 area%	1,28 area%	78,60 area%
